Assay results reported in ChEMBL document CHEMBL1828583, “Discovery process and pharmacological characterization of a novel dual orexin 1 and orexin 2 receptor antagonist useful for treatment of sleep disorders” (Bioorg Med Chem Lett, 2011).

Columns and labels:
[1] = target: T1, Orexin/Hypocretin receptor type 1 (Homo sapiens, UniProt O43613); assay: Antagonist activity at recombinant human OX1R expressed in CHO cells by FLIPR calcium based functional assay; type: cell-based
T1 sequence (O43613 whole entry): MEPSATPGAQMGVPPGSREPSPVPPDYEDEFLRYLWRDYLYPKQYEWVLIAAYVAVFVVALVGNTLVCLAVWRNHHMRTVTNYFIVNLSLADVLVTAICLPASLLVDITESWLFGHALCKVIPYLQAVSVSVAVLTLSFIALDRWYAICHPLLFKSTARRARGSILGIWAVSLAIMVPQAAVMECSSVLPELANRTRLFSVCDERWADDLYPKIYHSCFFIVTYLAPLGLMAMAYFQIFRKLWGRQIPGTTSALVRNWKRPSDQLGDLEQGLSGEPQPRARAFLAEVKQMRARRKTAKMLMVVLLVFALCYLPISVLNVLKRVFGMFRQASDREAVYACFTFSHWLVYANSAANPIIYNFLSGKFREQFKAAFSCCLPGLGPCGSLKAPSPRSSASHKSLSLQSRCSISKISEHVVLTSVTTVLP

Orexin receptor type 2 = target: T2, Orexin receptor type 2 (Homo sapiens, UniProt O43614); assay: Antagonist activity at recombinant human OX2R expressed in CHO cells by FLIPR calcium based functional assay; type: cell-based
T2 sequence (O43614 whole entry): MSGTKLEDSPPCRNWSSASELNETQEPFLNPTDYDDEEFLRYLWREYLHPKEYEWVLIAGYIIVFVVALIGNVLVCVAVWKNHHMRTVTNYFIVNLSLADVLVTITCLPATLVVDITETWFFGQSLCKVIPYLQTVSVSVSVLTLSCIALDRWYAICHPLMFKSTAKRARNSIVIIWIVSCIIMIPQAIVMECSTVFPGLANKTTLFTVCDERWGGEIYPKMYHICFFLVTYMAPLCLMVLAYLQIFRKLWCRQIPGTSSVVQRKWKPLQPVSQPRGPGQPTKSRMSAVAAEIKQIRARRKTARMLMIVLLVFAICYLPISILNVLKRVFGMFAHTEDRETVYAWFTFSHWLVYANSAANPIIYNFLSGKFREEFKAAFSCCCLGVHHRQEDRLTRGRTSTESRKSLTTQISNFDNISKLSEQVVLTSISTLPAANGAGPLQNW

Liver microsomes = assay: Intrinsic clearance in human liver microsomes; type: ADME, Microsome

| SMILES | Ki [1] [nM] | Ki (Orexin receptor type 2) [nM] | CL (Liver microsomes) [mL/min/g] |
| --- | --- | --- | --- |
| O=C(c1cccc2ccccc12)N1CCCC[C@H]1CCOc1ccc(F)cc1 | 6.31 | 126 | – |
| O=C(c1ccccc1-c1ccccc1)N1CCCC[C@H]1CCOc1ccc(F)cc1F | 0.158 | 0.794 | – |
| O=C(NC[C@@H]1CCCCN1C(=O)c1ccccc1-c1ccccc1)c1ccc(F)cc1 | 0.126 | 0.251 | 23 |
| CN(C[C@@H]1CCCCN1C(=O)c1ccccc1-c1ccccc1)C(=O)c1ccc(F)cc1 | 501 | 1260 | – |
| O=C(C[C@@H]1CCCCN1C(=O)c1ccccc1-c1ccccc1)Nc1ccccc1 | 50.1 | 31.6 | – |

Further lines, results first:

| Ki [1] [nM] | Ki (Orexin receptor type 2) [nM] | CL (Liver microsomes) [mL/min/g] | SMILES |
| --- | --- | --- | --- |
| 7.94 | 20 | – | O=C(NC[C@@H]1CCCCN1C(=O)c1ccccc1-c1ccccc1)c1ccccc1 |
| 39.8 | 31.6 | – | O=C(NC[C@H]1CCCCN1C(=O)c1ccccc1-c1ccccc1)c1ccc(F)cc1 |
